Test: xn = mol fraction of the nth substance listed
Conditions: 96 kPa, Liquid; for electrical conductivity: Frequency=0.001 MHz, Alternating current cell with electrodes; for viscosity: Cone and plate viscometry

C1CCC2=NCCCN2CC1 [1,8-diaza-7-bicyclo[5.4.0]undecene] + OCC(O)CO
Conditions	electrical conductivity, 308.1 K [S/m]	electrical conductivity, 313.1 K [S/m]	electrical conductivity, 318.1 K [S/m]	electrical conductivity, 323.1 K [S/m]	electrical conductivity, 328.1 K [S/m]	viscosity, 318.1 K [mPa·s]	viscosity, 328.1 K [mPa·s]
x1 = 0.0501	–	–	–	–	–	294.1	152.2
x1 = 0.0502	–	0.0666	0.0795	0.0955	0.11	–	–
x1 = 0.0909	–	–	–	–	–	345.9	175
x1 = 0.0914	–	0.0785	0.0971	0.118	0.132	–	–
x1 = 0.1	–	–	0.0947	–	0.132	343	177.4
x1 = 0.1115	0.0567	0.0761	0.0924	0.107	0.129	–	–
x1 = 0.1266	0.0543	0.0699	0.0877	0.101	0.126	–	–
x1 = 0.1667	–	–	–	–	–	359.5	182.5
x1 = 0.1672	0.0468	0.0613	0.0735	0.0882	0.103	–	–
x1 = 0.2	0.0398	0.0497	0.0601	0.071	0.0859	370.7	184.3
x1 = 0.2153	–	–	–	–	–	376.5	186.8
x1 = 0.2306	–	–	–	–	–	355.8	177.8
x1 = 0.2504	0.0263	0.0335	0.041	0.0491	0.0585	–	–
x1 = 0.287	0.0194	0.0245	0.0303	0.0358	0.0432	–	–
x1 = 0.3059	–	–	–	–	–	341.7	159.5
x1 = 0.3333	–	–	–	–	–	316.5	155
x1 = 0.3338	0.0137	0.0158	0.0192	0.0233	0.0271	–	–
x1 = 0.4003	0.00571	0.00702	0.00895	0.0107	0.0131	–	–
x1 = 0.4011	–	–	–	–	–	279.6	138.5
x1 = 0.5	0.00128	0.00169	0.00221	0.00279	0.00347	223.8	105.4
x1 = 0.5632	–	–	–	–	–	169.8	83.62
x1 = 0.5656	0.000502	0.000644	0.000939	0.00113	0.0015	–	–
x1 = 0.625	–	–	–	–	–	109	57.48
x1 = 0.6255	0.000251	0.00034	0.000466	0.000604	0.0008	–	–
x1 = 0.75	0.000346	–	0.000559	–	0.000826	43.75	26.15
x1 = 0.753	0.000346	0.000447	0.000559	0.000667	0.000826	–	–
x1 = 0.8333	0.000614	–	0.00087	–	0.00115	20.71	13.46
x1 = 0.8334	0.000614	0.00076	0.00087	0.00102	0.00115	–	–
x1 = 0.9094	0.000788	0.000915	0.00101	0.00111	0.0012	–	–
x1 = 0.95	0.000791	0.000857	0.000949	0.00104	0.00112	–	–
x1 = 0.975	0.000668	0.000719	0.000789	0.000841	0.000928	–	–
x1 = 1	0.00032	0.000356	0.000382	0.000423	0.000444	6.08	4.91

Reference: the NIST ThermoML archive (doi:10.1016/j.jct.2019.04.017)
